Assay [1] relates to TGF-β signaling (p-SMAD-3 Ser423/425). Nature of the assay: AlphaScreen SureFire SMAD3 (p-Ser423/425) assay, TGF-β-stimulated. The assay is classed as cell-based. The settings on record: inhibition of TGF-β signaling, pSMAD, MPC-11. (Alpha assays give light when donor and acceptor beads are brought close together.)
The test system of assay [2] is GDF8 signaling (p-SMAD-3 Ser423/425). Description: AlphaScreen SureFire SMAD3 (p-Ser423/425) assay, GDF8-stimulated. The assay is classed as cell-based. Particulars: inhibition of GDF8 signaling, pSMAD, MPC11; read-out: GDF8 (GDF pSMAD (MPC11)).

This passage reports IC50 results from patent publication US11352360B2, “TGF-beta inhibitors” (Rigel Pharmaceuticals, Inc., priority 2015, dated 2022).

`COc1ccc(-c2nc(N)sc2-c2ccc3[nH]ncc3c2)cc1` [Compound 157, 5-(1H-indazol-5-yl)-4-(4-methoxyphenyl)thiazol-2-amine]: the IC50 turned out to be 160 nM in assay [1] and 25.6 nM in assay [2].
